From patent EP1117659B1, “SUBSTITUTED 3-CYANOQUINOLINES AS PROTEIN TYROSINE KINASES INHIBITORS” (Wyeth Holdings Corporation, priority 1998, dated 2000)
Where “and” joins values, the source holds several entries; their conditions need not be identical. Identical values can stand only once. Counter-ions that a name gives are not always drawn. Like-named read-outs stand apart in the source and are kept apart here.

How the values were obtained:
Assay type in all cases: biochemical
[1] = molecular target: Epithelial Cell Kinase (ECK) (Homo sapiens, UniProt P29317); assay: Inhibition of Epithelial Cell Kinase (ECK), immobilized biotinylated peptide, HRP anti-phosphotyrosine readout; settings: IC50, substrate phosphorylation
Method: In this standard pharmacological test procedure, a biotinylated peptide substrate is first immobilized on neutravidin-coated microtiter plates. The test drug, the Epithelial Cell Kinase (ECK), Mg^++, sodium vanadate (a protein tyrosine phosphatase inhibitor), and an appropriate buffer to maintain pH (7.2) are then added to the immobilized substrate-containing microtiter wells. ATP is then added to initiate phosphorylation. After incubation, the assay plates are washed with a suitable buffer leaving behind phosphorylated peptide which is exposed to horse radish peroxidase (HRP)-conjugated anti-phosphotyrosine monoclonal antibody. The antibody-treated plates are washed again and the HRP activity in individual wells is quantified as a reflection of degree of substrate phosphorylation. […] Multiple entries for a given compound indication it was tested multiple times.

[2] = molecular target: T1, Kinase insert Domain containing Receptor (KDR: the catalytic domain of the VEGF receptor) (Homo sapiens, UniProt P35968); assay: Inhibition of Kinase insert Domain containing Receptor (KDR), radioactive phosphorylation of Glu:Tyr copolymer; settings: IC50, substrate phosphorylation
T1 construct: KDR: the catalytic domain of the VEGF receptor
Method: In this standard pharmacological test procedure, KDR protein is mixed, in the presence or absence of a inhibitor compound, with a substrate peptide to be phosphorylated (a copolymer of glutamic acid and tyrosine, E:Y :: 4:1) and other cofactors such as Mg^++ and sodium vanadate (a protein tyrosine phosphatase inhibitor) in an appropriate buffer to maintain pH (7.2). ATP and a radioactive tracer (either P^32- or P^33- labeled ATP) is then add to initiate phosphorylation. After incubation, the radioactive phosphate associated with the acid-insoluble fraction of the assay mixture is then quantified as reflection of substrate phosphorylation. […] Multiple entries for a given compound indication it was tested multiple times.

[3] = molecular target: Recombinant human MEK 1 (MAPKK) / recombinant human ERK2 (MAPK) (Mek-Erk) (Homo sapiens, UniProt P28482+Q02750); assay: Mitogen Activated Protein Kinase (MAPK) assay, two component coupled Mek-Erk test
[4] = molecular target: T2, epidermal growth factor receptor kinase (EGF-R Kinase, recombinant enzyme; His-tagged cytoplasmic domain of EGFR) (Homo sapiens, UniProt P00533); assay: Inhibition of Epidermal Growth Factor Receptor Kinase (EGF-R) using recombinant enzyme, RR-SRC peptide phosphorylation, 33P-ATP; settings: for inhibition at 0.5 µM: read-out: %Inh @ 0.5 µM; for IC50: recombinant enzyme, 90 min at room temperature
T2 construct: EGFR cDNA encoding amino acids 645 - 1186 preceded by Met-Ala-(His)6; Met-Ala-(His)6 (N); made in house; host or cells: Sf9 insect cells, recombinant baculovirus vHcEGFR52
Method: Representative test compounds were evaluated for their ability to inhibit the phosphorylation of the tyrosine residue of a peptide substrate catalyzed by the enzyme epidermal growth factor receptor kinase. The peptide substrate (RR-SRC) has the sequence arg-arg-leu-ile-glu-asp-ala-glu-tyr-ala-ala-arg-gly. The enzyme used in this test procedure is the His-tagged cytoplasmic domain of EGFR. A recombinant baculovirus (vHcEGFR52) was constructed containing the EGFR cDNA encoding amino acids 645 - 1186 preceded by Met-Ala-(His)6. Sf9 cells in 100 mm plates were infected at an moi of 10 pfu/cell and cells were harvested 48 h post infection. A cytoplasmic extract was prepared using 1% Triton X-100 and applied to Ni-NTA column. After washing the column with 20 mM imidazole, HcEGFR was eluted with 250 mM imidazole (in 50 mM Na2HPO4, pH 8.0, 300 mM NaCl). Fractions collected were dialyzed against 10 mM HEPES, pH 7.0, 50 mM NaCl, 10% glycerol, lug/mL antipain and leupeptin and 0.1 mM Pefabloc SC. The protein was frozen in dry ice/methanol and stored -70°C.
Test compounds were made into 10 mg/mL stock solutions in 100% dimethylsulfoxide (DMSO). Prior to experiment, stock solutions were diluted to 500 uM with 100% DMSO and then serially diluted to the desired concentration with HEPES buffer (30 mM HEPES pH 7.4).
For the enzyme reaction, 10 uL of each inhibitor (at various concentrations) were added to each well of a 96-well plate. To this was added 3 uL of enzyme (1:10 dilution in 10mM HEPES, pH 7.4 for final cone. of 1:120). This was allowed to sit for 10 min on ice and was followed by the addition of 5 ul peptide (80 uM final cone.), 10ul of 4X Buffer (Table A), 0.25 uL ^33P-ATP and 12 uL H2O. The reaction was allowed to run for 90 min at room temperature and was followed by spotting the entire volume on to precut P81 filter papers. The filter discs were washed 2X with 0.5% phosphoric acid and radioactivity was measured using a liquid scintillation counter.
The inhibition data for representative compounds of the invention are shown below in TABLE 1. […] The % inhibition of the test compound was determined for at least three different concentrations and the IC50 value was evaluated from the dose response curve. […] CPM(control) is in units of counts per minute and was a number expressing the amount of radiolabled ATP (γ-^33P) incorporated into the RR-SRC peptide substrate by the enzyme after 90 minutes at room temperature in the absence of test compound as measured by liquid scintillation counting. The CPM values were corrected for the background counts produced by ATP in the absence of the enzymatic reaction. […]

Sequence of Recombinant human MEK 1 (MAPKK) / recombinant human ERK2 (MAPK) (Mek-Erk) (P28482 2-360): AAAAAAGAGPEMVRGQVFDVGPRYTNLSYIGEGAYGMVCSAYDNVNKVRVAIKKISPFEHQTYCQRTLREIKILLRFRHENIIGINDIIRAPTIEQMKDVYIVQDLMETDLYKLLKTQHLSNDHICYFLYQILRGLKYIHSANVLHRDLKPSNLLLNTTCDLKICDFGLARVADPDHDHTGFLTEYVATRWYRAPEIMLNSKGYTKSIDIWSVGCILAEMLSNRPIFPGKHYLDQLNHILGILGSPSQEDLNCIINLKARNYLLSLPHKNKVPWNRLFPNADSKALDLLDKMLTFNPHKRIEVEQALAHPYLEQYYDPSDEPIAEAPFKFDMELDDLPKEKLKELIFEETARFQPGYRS
Sequence of Recombinant human MEK 1 (MAPKK) / recombinant human ERK2 (MAPK) (Mek-Erk) (Q02750 whole entry, the tested form may be a part): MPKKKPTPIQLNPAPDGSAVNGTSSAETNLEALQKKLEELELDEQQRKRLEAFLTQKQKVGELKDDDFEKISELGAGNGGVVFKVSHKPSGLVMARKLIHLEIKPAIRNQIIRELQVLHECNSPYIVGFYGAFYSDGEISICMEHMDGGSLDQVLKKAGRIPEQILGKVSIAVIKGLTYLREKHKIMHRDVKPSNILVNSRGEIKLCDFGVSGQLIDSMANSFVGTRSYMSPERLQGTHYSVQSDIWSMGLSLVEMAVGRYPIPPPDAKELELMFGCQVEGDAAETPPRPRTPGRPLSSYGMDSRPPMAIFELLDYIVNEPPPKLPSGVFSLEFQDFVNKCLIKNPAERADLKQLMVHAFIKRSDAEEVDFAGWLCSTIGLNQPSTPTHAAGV
T1 sequence (P35968 834-1162 limits assumed): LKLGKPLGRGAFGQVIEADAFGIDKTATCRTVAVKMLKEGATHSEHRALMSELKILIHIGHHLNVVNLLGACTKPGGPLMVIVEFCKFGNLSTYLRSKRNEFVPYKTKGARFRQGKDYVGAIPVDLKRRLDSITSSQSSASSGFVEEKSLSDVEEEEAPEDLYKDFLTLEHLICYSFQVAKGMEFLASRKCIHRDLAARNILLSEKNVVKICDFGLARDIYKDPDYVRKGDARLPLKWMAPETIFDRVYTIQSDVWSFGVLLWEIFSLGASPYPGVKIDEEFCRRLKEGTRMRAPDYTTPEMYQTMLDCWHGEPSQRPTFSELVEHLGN
Sequence of Epithelial Cell Kinase (ECK) (P29317 24-976, species assumed): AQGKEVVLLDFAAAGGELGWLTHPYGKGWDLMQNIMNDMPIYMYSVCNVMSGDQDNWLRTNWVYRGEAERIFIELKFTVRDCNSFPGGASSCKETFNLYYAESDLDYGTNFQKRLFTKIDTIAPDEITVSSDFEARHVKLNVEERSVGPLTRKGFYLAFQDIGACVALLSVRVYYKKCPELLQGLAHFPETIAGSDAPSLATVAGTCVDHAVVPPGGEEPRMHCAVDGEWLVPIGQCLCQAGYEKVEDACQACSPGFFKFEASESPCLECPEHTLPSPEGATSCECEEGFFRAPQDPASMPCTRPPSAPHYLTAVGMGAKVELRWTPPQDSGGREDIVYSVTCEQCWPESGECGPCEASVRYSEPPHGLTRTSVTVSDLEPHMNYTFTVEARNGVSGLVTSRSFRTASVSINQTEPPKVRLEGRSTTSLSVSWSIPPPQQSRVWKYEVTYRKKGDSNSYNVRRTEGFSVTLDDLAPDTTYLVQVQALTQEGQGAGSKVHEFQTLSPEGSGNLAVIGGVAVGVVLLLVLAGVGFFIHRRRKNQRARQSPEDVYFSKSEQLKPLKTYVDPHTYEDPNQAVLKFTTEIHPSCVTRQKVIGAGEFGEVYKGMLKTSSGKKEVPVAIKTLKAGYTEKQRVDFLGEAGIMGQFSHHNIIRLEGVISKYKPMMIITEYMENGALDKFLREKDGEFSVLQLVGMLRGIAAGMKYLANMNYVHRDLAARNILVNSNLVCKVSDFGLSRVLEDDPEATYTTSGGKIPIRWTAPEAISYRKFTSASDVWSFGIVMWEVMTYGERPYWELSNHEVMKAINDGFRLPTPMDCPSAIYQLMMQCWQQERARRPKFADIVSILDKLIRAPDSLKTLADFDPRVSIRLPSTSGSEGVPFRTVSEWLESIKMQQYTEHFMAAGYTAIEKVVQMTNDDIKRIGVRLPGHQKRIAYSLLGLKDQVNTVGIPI

IC50 [1]	IC50 [2]	IC50 ([3]; read-out: Mek-Erk)	Compound	IC50 [4]	also measured
> 2.65 µM	53 µM and > 2.65 µM	–	CCOc1cc2ncc(C#N)c(Nc3ccc4c(c3)OCO4)c2cc1OCC [Example 98, 4-(Benzo[1,3]dioxol-5-ylamino)-6,7-diethoxy-quinoline-3-carbonitrile]	–	–
–	–	35 µM	N#Cc1cnc2cc3c(cc2c1Nc1ccc2cn[nH]c2c1)OCCO3 [Example 125, 9-(1H-Indazol-6-ylamino)-2,3-dihydro[1,4]dioxino[2,3-g]quinoline-8-carbonitrile]	–	–
> 29 µM	0.581 µM	–	COc1cc2ncc(C#N)c(Nc3ccc4[nH]ccc4c3)c2cc1OC [Example 150, 4-(1H -Indol-5-ylamino)-6,7-Dimethoxy-quinoline-3-carbonitrile]	0.0015 µM and 0.004 µM	–
> 31.7 µM	47.6 µM and > 3.17 µM	2 µM	COc1ccc2c(Nc3ccc4cn[nH]c4c3)c(C#N)cnc2c1 [Example 143, 4-(1H-Indazol-6-ylamino)-7-methoxy-quinoline-3-carbonitrile]	–	–
> 53.3 µM	> 79.9 µM	> 100 µM and 100 µM	COc1cc2c(Nc3ccc4cn[nH]c4c3)c(C#N)cnc2c(OC)c1OC [Example 128, 4-(1H-Indazol-6-ylamino)-6,7,8-trimethoxy-quinoline-3-carbonitrile]	–	–
0.762 µM	> 2.54 µM	–	COc1cc2c(Nc3ccc4cn[nH]c4c3)c(C#N)cnc2cc1OCCCl [Example 166, 7-(2-Chloroethoxy)-4-(1H-indazol-6-ylamino)-6-methoxyquinoline-3-carbonitrile]	–	–
–	–	–	C=CC(=O)Nc1ccc2ncc(C#N)c(Nc3ccc(Sc4nccn4C)c(Cl)c3)c2c1 [Example 176, N-{4-[3-Chloro-4-(1-methyl-1H-imidazol-2-ylsulfanyl)-phenylamino]-3-cyano-quinolin-6-yl}-acrylamide]	0.01 µM	–
–	–	3 µM	COc1ccc2c(Nc3ccc4[nH]ccc4c3)c(C#N)cnc2c1 [Example 146, 4-(1H -Indol-5-ylamino)-7-methoxy-quinoline-3-carbonitrile]	–	–
> 29 µM	> 86.9 µM	> 100 µM	COc1ccc(OC)c2c(Nc3ccc4cn[nH]c4c3)c(C#N)cnc12 [Example 138, 4-(1H-Indazol-6-ylamino)-5,8-dimethoxy-quinoline-3-carbonitrile]	–	–
22.1 µM and > 2.21 µM	1.55 µM and 2.21 µM	–	COc1cc2c(Nc3ccc4c(c3)NCC4)c(C#N)cnc2cc1OCCCc1ccncc1 [Example 119, 4-(2,3-Dihydro-1H-indol-6-ylamino)-6-methoxy-7-(3-pyridin-4-yl-propoxy)-quinoline-3-carbonitrile]	–	–
–	–	–	CCOc1cc2ncc(C#N)c(Nc3ccc(Sc4nccn4C)c(Cl)c3)c2cc1OCC [Example 172, 4-[3-Chloro-4-(1-methyl-2-imidazolylthio)phenylamino]-6,7-diethoxy-3-quinolinecarbonitrile]	0.09 µM	–
–	–	–	COc1cc2ncc(C#N)c(Nc3ccc(Sc4nccn4C)c(Cl)c3)c2cc1OC [Example 173, 4-[3-Chloro-4-(1-methyl-2-imidazolylthio)phenylamino]-6,7-dimethoxy-3-quinolinecarbonitrile]	0.5 µM	–
–	–	4 µM	COc1cc2ncc(C#N)c(Nc3cccc4c3CCCC4)c2cc1OC [Example 155, 6,7-Dimethoxy-4-(5,6,7,8,- tetrahydro-naphthalen-1-ylamino)-quinoline-3-carbonitrile]	–	–
> 2.9 µM	29 µM and > 2.9 µM	–	COc1cc2ncc(C#N)c(Nc3ccc4[nH]ncc4c3)c2cc1OC [Example 137, 4-(1H-Indazol-5-ylamino)-6,7-dimethoxy-quinoline-3-carbonitrile]	0.15 µM	–
–	8.66 µM	–	COc1cc2ncc(C#N)c(Nc3ccc4c(c3)NCC4)c2cc1OC [Example 113, 4-(2,3-Dihydro-1H-indol-6-ylamino)-6,7-methoxy-quinoline-3-carbonitrile]	–	–
0.77 µM	12.8 µM and > 2.57 µM	–	COc1cc2ncc(C#N)c(Nc3ccc(Cl)c4ccccc34)c2cc1OC [Example 154, 4-(4-Chloro-naphthalen-1-ylamino)-6,7 -Dimethoxy-quinoline-3-carbonitrile]	–	–
–	–	–	4-(2,3-Dihydro-1H-indol-6-ylamino)-6,7-diethoxy-quinoline-3-carbonitrile [Example 96]	–	%Inh @ 0.5 µM ([4]; 0.5 µM concentration of test compound): 6%

Compound	IC50 [1]	IC50 [2]	IC50 ([3]; read-out: Mek-Erk)	IC50 [4]	also measured
CCOc1cc2ncc(C#N)c(Nc3ccc4ncsc4c3)c2cc1OCC [Example 97, 4-(Benzothiazol-6-ylamino)-6,7-diethoxy-quinoline-3-carbonitrile HCl Salt]	> 2.56 µM	> 2.56 µM	–	> 10 µM	IC50 ([3]; read-out: Mek-Erk µM): 55 µM; inhibition at 0.5 µM [4]: 7%
COc1cc2c(Nc3ccc4cn[nH]c4c3)c(C#N)cnc2cc1OCCN(C)C [Example 167, 7-(2-Dimethylaminoethoxy)-4-(1H-indazol-6-ylamino)-6-methoxyquinoline-3-carbonitrile]	–	–	8 µM	> 1 µM	inhibition at 0.5 µM [4]: 0%
COc1cc2ncc(C#N)c(Nc3ccc4[nH]c(C)nc4c3)c2cc1OC [Example 152, 6,7-Dimethoxy-4-(2-methyl-1H -benzoimidazol-5-ylamino)-quinoline-3-carbonitrile]	> 27.8 µM	–	> 100 µM	> 1 µM	inhibition at 0.5 µM [4]: 24%
COc1cc2ncc(C#N)c(Nc3ccc4cn[nH]c4c3)c2cc1OCCCN1CCOCC1 [Example 139, 4-(1H-Indazol-6-ylamino)-7-methoxy-6-(3-morpholin-4-yl-propoxy)-quinoline-3-carbonitrile hydrochloride]	> 2.18 µM	21.8 µM and > 2.18 µM	–	–	IC50 ([3]; read-out: Mek-Erk µM): 15 µM
COc1cc2ncc(C#N)c(Nc3cccc4[nH]ccc34)c2cc1OC [Example 136, 4-(1H-Indol-4-ylamino)-6,7-dimethoxy-quinoline-3-carbonitrile]	0.871 µM	> 29 µM	–	> 1 µM	inhibition at 0.5 µM [4]: 33%
COc1cc2ncc(C#N)c(Nc3ccc4[nH]cnc4c3)c2cc1OC [Example 151, 4-(1H -Benzoimidazol-5-ylamino)-6,7-dimethoxy-quinoline-3-carbonitrile]	> 29 µM	29 µM	–	> 1 µM	inhibition at 0.5 µM [4]: 34%
COc1cc2c(Nc3ccc4cn[nH]c4c3)c(C#N)cnc2cc1OCCN1CCOCC1 [Example 168, 4-(1H-Indazol-6-ylamino)-6-methoxy-7-(2-morpholin-4-yl-ethoxy)quinoline-3-carbonitrile]	> 22.5 µM	4.5 µM	–	> 1 µM	inhibition at 0.5 µM [4]: 1%
COc1cc2ncc(C#N)c(Nc3ccc4nn[nH]c4c3)c2cc1OCCCN1CCOCC1 [Example 140, 4-(3H-Benzotriazol-5-ylamino)-7-methoxy-6-(3-morpholin-4-yl-propoxy)-quinoline-3-carbonitrile hydrochloride]	2.18 µM	–	–	–	IC50 ([3]; read-out: Mek-Erk µM, hydrochloride): 22 µM and 15 µM
